Tests used:
[1] = test system: PPAR semi deficient epithelial cells; assay: LCT gene expression in PPAR knock down (ShPPAR) Caco-2 cells; assay type: cell-based, human
Description: (§1) Transcripts of genes were estimated by quantitative PCR (qPCR) in order to confirm microarrays results. 1 μg of total RNA was reverse-transcripted into cDNA using the High Capacity cDNA Achive kit (Applied biosystems). qPCR was performed using an ABI PRISM 7000 sequence detection system (Applied Biosystem). Primer pairs for each transcript were chosen with qPrimer depot software. Quantification of qPCR signals was performed using ΔCt relative quantification method using GAPDH as a reference gene. The values were represented in terms of relative quantity of mRNA level variation or fold increase compared to control conditions.
PPARγ knock down IECs were obtained using the pSUPER.retro system (OligoEngine). Forward and reverse target sequences corresponding to nucleotides 105-123 of the human PPARg mRNA (5-′-GCCCTTCACTACTGTTGAC-3′ (SEQ ID NO: 1)) were cloned into the BglII/XhoI restriction sites of the pSUPERretro vector (pRS) giving the ShPPAR construct. A negative control pRS plasmid containing the sequence 5′-ACGCTGAGTACTTCGAAAT-3′ (SEQ ID NO: 2) targeted against the luciferase gene was also generated (ShLuc construct). Both constructions were transfected in Caco-2 cells using Nucleofector technology from Amaxa Biosystems, according to the manufacturer's protocol. […] The silencing of PPARg expression was checked by quantitative RT-PCR and western-blot analysis. […]

[2] = test system: human lactase gene; assay: Lactase mRNA expression (qPCR) in Caco-2 cells stimulated with PPAR agonists; assay type: cell-based; conditions: for LCT gene expression in Caco2 cells: summary statement
Description: Caco-2 colonic adenocarcinoma cell lines were used. Caco-2 cells grew in Dulbecco's modified Eagle's medium (DMEM, Invitrogen, Cergy-Pontoise, France) supplemented with 20% foetal calf serum (FCS, Dutscher, Brumath, France), 1% penicillin-streptomycin (5 ml/l) (Invitrogen) and 1% non-essential amino acids (5 ml/l) (Invitrogen). All cell lines were cultured as confluent monolayers at 37° C. in a controlled, 5% CO2 atmosphere. Each week, the confluent monolayer were trypsinized (Invitrogen) and then replated after a 1:10 dilution. For the stimulation experiments, cells were placed in 6-well plates at a density of 1×10^6 cells per well. Serum deprivation was used 16 hours prior to stimulation in order to synchronize the cells.
The cells were treated with Compound 34 (1 mM and 30 mM), 5-ASA (30 mM), or pioglitazone (1 μM). When necessary, the vehicle DMSO (Sigma) is used as control (Ctrl). After 24 hrs of stimulation, the wells were rinsed three times with sterile PBS at 4° C. The cells were then lysed with lysis buffer (RA1, Macherey-Nagel) containing 1% β-mercaptoethanol. The plates were frozen at −80° C. for subsequent RNA extraction. A time course experiment consisting of stimulation of Caco-2 cells by compound 34, 1 mM during 6 hrs and 12 hrs was also done in order to compare gene expression according treatment duration.
Total RNA were extracted with a Nucleospin RNA kit (Macherey-Nagel, Hoerdt, France). After RNAse inactivation, the total RNA was cleaned of trace genomic DNA via a DNAse treatment and eluted in RNAse-free, DEPC-free water. The purity of the RNA will be evaluated by UV spectroscopy on a Nanodrop system from 220 to 350 nm. Before microarray experiment, RNAs were also profiled on an Agilent 2100 bioanalyzer. One μg of total RNA were used in the microarray analysis (minimum concentration: 50 ng/μl).
as §1
Each experiment has been done at least twice. The lactase gene expression was first confirmed to be stimulated by compound 34 at two different concentrations (1 mM, fold increase 4.78, p=0.0002; 30 mM, fold increase 7.9, p=0.0006) (FIG. 4A).

Compound	LCT gene expression in PPAR semi deficient epithelial cells [1]	lactase gene expression, fold increase ([2]; 30 mM, 24 hrs, Caco-2 cells) [fold]	LCT gene expression in Caco2 cells [2]	lactase mRNA expression, fold increase ([2]; 1 μM, 24 hrs, Caco-2 cells) [fold]
Nc1ccc(O)c(C(=O)O)c1 [5ASA, 5-amino salicyclic acid]	kept their upregulatory effects	12.69	enhance LCT gene expression	
CCc1ccc(CCOc2ccc(CC3SC(=O)NC3=O)cc2)nc1 (centres unmarked) [pioglitazone]			enhance LCT gene expression	11.76
